Here are results for four molecules from patent publication US12239650B2, “Compounds for treating and preventing net associated complications” (The Australian National University, priority 2019, dated 2025).

Like-named read-outs stand apart in the source and are kept apart here.

Data set [1] relates to histones. Description: In-vivo histone toxicity assay. As to conditions: mice; for Protection from histone-induced liver damage, generalised tissue injury and kidney failure (circulating ALT, LDH, creatinine): compound i.p. 10 min prior to i.v. histones 50 mg kg^−1, blood 4 h post-histones, concentration-dependent. The protocol: In-vivo histone toxicity assays. BALB/c female mice (5-6 weeks of age), that are more prone to histone-induced anemia and easier to inject i.v. at this young age than C57BL/6 mice, were injected i.p. with test compounds at concentrations indicated 10 min prior to i.v. injection of histones (50 mg kg^−1) in phosphate buffered saline. Retro-orbital bleeds were performed with glass Pasteur pipettes 10 min after histone injection and collected blood added to acid citrate dextrose (ACD), the 10 min blood sample being subjected to hematologic analyses for platelet and erythrocyte content using an ADVIA 2120i Hematology Analyzer. Spleens were also harvested at 10 min post-histone injection and splenic hemoglobin content quantified using a hemoglobin assay kit (Sigma-Aldrich). In the case of 4 h blood samples, male C57/BL/6 mice (6-8 weeks of age) were injected with test compounds and histones as above and plasma isolated and stored frozen for subsequent biochemical testing, with markers for liver (alanine aminotransferase, ALT), kidney (creatinine, Crea) and general tissue (lactate dehydrogenase, LDH) damage being determined by the Department of Pathology, The Canberra Hospital.

The test system of data set [2] is histone-induced platelet aggregation. Description: Histone-induced aggregation of isolated platelets. Format: cell-based, human. The conditions noted are these: histones 150 μg/mL, isolated platelets, FIG. 4b. How it is done:
In vitro platelet aggregation and degranulation assays. For aggregation studies platelets were isolated from human whole blood collected into Na-citrate vacutainers through 2-step centrifugation at room temperature (200×g for 20 min then the platelet-rich plasma 800×g for 15 min), the platelet pellet resuspended in Hank's balanced salt solution containing calcium and magnesium and histones added and incubated in the presence/absence of compounds at the concentrations of each as indicated. Samples were assessed for degree of platelet aggregation after 15 min exposure to histones by flow cytometry using the characteristic log FSC versus log SSC identification of platelets, with increases in the geometric mean of log FSC indicative of platelet aggregation.

Data set [3] relates to histone-mediated cytotoxicity for HMEC-1. Description: Histone-mediated cytotoxicity assay (PI/Calcein-AM flow cytometry). Format: cell-based. The protocol: Histone-mediated cytotoxicity assays. To determine the cytotoxicity of calf thymus histones (Sigma-Aldrich), various concentrations of histones (100-800 μg ml^−1) were added to suspensions of HMEC-1 or HUVEC (1×10^6 ml^−1) in 96 well plates and incubated for 1 h at 37° C. Cells were then incubated for 5 min at 37° C. with propidium iodide (PI; 2.5 μg ml^−1) (ThermoFisher Scientific), to detect dead cells, and Calcein-AM (0.04 μM) (ThermoFisher Scientific), to detect viable cells, placed on ice and the percentage of dead and viable cells determined by flow cytometry using gating strategies. In inhibition assays, HMEC-1 were incubated with histones (400 μg ml^−1) for 1 h at 37° C. in the presence of different concentrations of compounds (12.5-400 μg ml^−1) prior to the addition of PI and Calcein-AM. HMEC-1 cytotoxicity at each compound concentration was then determined based on the formula:
[formula] and the IC50 value for each polyanion then determined based on the line of best fit (nonlinear regression analysis) using Prism Software (Graphpad Software). In all assays MTS (IC50 30 μg ml^−1) was included as a standard to compensate for experimental variation, with data being adjusted in each assay to MTS having an IC50 of 30 μg ml^−1.

A short description of data set [4]: Rat ischemia reperfusion tissue (skin) flap model. The conditions noted are these: rat skin flap IRI, 50 mg kg^−1 i.p., 72 h, FIG. 7d. It is filed as in vivo. The source says:
Rat ischemia reperfusion tissue flap model. The procedure employed is largely based on a previously described method (Bone, R. C. et al. Definitions for sepsis and organ failure and guidelines for the use of innovative therapies in sepsis. The ACCP/SCCM Consensus Conference Committee. American College of Chest Physicians/Society of Critical Care Medicine. Chest 101, 1644-1655 (1992)). Briefly, male Wistar rats were anaesthetized, locally depilated and a 3 cm by 6 cm fasciocutaneous flap was excised leaving the vascular pedicle intact. […] The clamp was removed 10 h post-application permitting returned blood flow to the flap. Test compounds (50 mg kg^−1) or saline were administered i.p. 5 min prior to clamp application and 5 min following its removal. The rats were monitored for a total experimental period of 72 h during which rats received additional compound or saline i.p. at 24 and 48 h post-op. The ‘Control No Clamp’ rats had the tissue flap excised and rubber placed underneath prior to re-suturing, however, the vessel was not clamped and they received saline at the same time points as the other rats. At the end of the experimental period the viability of the flaps was determined by the percentage of black necrotic or reddened areas versus pink viable areas. […]

The subject of data set [5] is histone-induced erythrocyte rigidity. The data set is described as follows: Erythrocyte deformability, passage through artificial spleen. It is filed as cell-based, human. The conditions noted are these: histones 400 μg ml^−1, compounds 100 and 200 μg ml^−1, FIG. 3d. How it is done: Human erythrocytes (RBC) were incubated for 1 h at 37° C. alone (‘Saline’ control) or in the presence of histones (400 μg ml^−1) with or without mCBS (200 μg ml^−1). a, Percentage of RBC aggregation measured by flow cytometry based on forward (FSC) and side (SSC) scatter parameters and an appropriate gating strategy to discriminate aggregated from normal (non-aggregated) RBC. b, Scanning electron micrographs depicting level of RBC aggregation at low and high magnification following the three treatments depicted in (a). c, Concentration dependent inhibition of histone-mediated RBC aggregation by mCBS and MTS, in this case RBC aggregation being calculated by flow cytometry as fold increase in RBC auto-fluorescence relative to RBC in the absence of histones. The fold increase values also provide an estimate of the number of RBC in each aggregate. d, Retention of RBC in an artificial spleen that measures RBC deformability. […]
In vitro erythrocyte microscopy, aggregation, fragility and deformability assays. […] Similarly, erythrocyte fragility induced by histones, in the presence or absence of inhibitors, was quantified using a sheer stress assay that we developed recently (Kordbacheh, F., O'Meara, C. H., Coupland, L. A., Lelliott, P. M. & Parish, C. R. Extracellular histones induce erythrocyte fragility and anemia. Blood 130, 2884-2888 (2017)). […]

The subject of data set [6] is anti-proliferative effect of histones on HMEC-1. The data set is described as follows: HMEC-1 proliferation (3H-thymidine) after histone exposure. Format: cell-based, human. The conditions noted are these: compounds 100 μg ml^−1, histones 400 μg ml^−1, FIG. 8b.
The test system of data set [7] is histone-mediated RBC aggregation. The data set is described as follows: Histone-mediated erythrocyte aggregation (flow cytometry, scanning EM). Format: cell-based, human. The protocol: Human erythrocytes (RBC) were incubated for 1 h at 37° C. alone (‘Saline’ control) or in the presence of histones (400 μg ml^−1) with or without mCBS (200 μg ml^−1). a, Percentage of RBC aggregation measured by flow cytometry based on forward (FSC) and side (SSC) scatter parameters and an appropriate gating strategy to discriminate aggregated from normal (non-aggregated) RBC. b, Scanning electron micrographs depicting level of RBC aggregation at low and high magnification following the three treatments depicted in (a). c, Concentration dependent inhibition of histone-mediated RBC aggregation by mCBS and MTS, in this case RBC aggregation being calculated by flow cytometry as fold increase in RBC auto-fluorescence relative to RBC in the absence of histones. The fold increase values also provide an estimate of the number of RBC in each aggregate. d, Retention of RBC in an artificial spleen that measures RBC deformability. RBC were incubated with increasing concentrations of histones for 1 h and, at the highest concentration used (400 μg ml^−1), also incubated with either mCBS or MTS (100 and 200 μg ml^−1), prior to passage through the artificial spleen. Data are mean±s.e.m. (n=3 biological replicates). ***P<0.001, ****P<0.0001 (one way ANOVA with Dunnett's multiple comparisons test).
In vitro erythrocyte microscopy, aggregation, fragility and deformability assays. […] J Biol Chem 289, 19531-19537 (2014)). Similarly, erythrocyte fragility induced by histones, in the presence or absence of inhibitors, was quantified using a sheer stress assay that we developed recently (Kordbacheh, F., O'Meara, C. H., Coupland, L. A., Lelliott, P. M. & Parish, C. R. Extracellular histones induce erythrocyte fragility and anemia. Blood 130, 2884-2888 (2017)). Finally, the reduced deformability of erythrocytes in the presence of histones and the effect of inhibitors on this process was assessed by measuring the passage of erythrocytes through an artificial human spleen (Kordbacheh, F., O'Meara, C. H., Coupland, L. A., Lelliott, P. M. & Parish, C. R. Extracellular histones induce erythrocyte fragility and anemia. Blood 130, 2884-2888 (2017); and Deplaine, G. et al. The sensing of poorly deformable red blood cells by the human spleen can be mimicked in vitro. Blood 117, e88-95 (2011)).
A general note: Flow cytometry measures light scatter and fluorescence of single cells or particles in a stream.

As for `OC[C@H]1O[C@@H](O[C@H]2[C@H](O)[C@@H](O)[C@H](O)O[C@@H]2CO)[C@H](O)[C@@H](O)[C@@H]1O` [CB], the “Protection from histone-induced liver damage, generalised tissue injury and kidney failure (circulating ALT, LDH, creatinine)” value in data set [1] (FIG. 6a) was “inactive”. For the same molecule, the “Inhibition of histone-induced platelet aggregation” value in data set [2] was “non-inhibitory”.
Take `O=S(=O)(O)OC[C@H]1OC(OS(=O)(=O)O)[C@H](OS(=O)(=O)O)[C@@H](OS(=O)(=O)O)[C@@H]1OS(=O)(=O)O` (some centres unmarked) [glucose per-O-sulfate]: the “Inhibition of histone-mediated cytotoxicity for HMEC-1 (endothelial cells)” value (“Inhibition … (endothelial cells)” for short) in data set [3] is listed as “little or no inhibitory activity”.
For the molecule `CO[C@@H]1O[C@H](COS(=O)(=O)O)[C@@H](OS(=O)(=O)O)[C@H](OS(=O)(=O)O)[C@H]1OS(=O)(=O)O` [methyl β-glucoside per-O-sulfate], the “Inhibition … (endothelial cells)” value in data set [3] (compared with heparin, FIG. 2a) is reported as “little or no inhibitory activity”.
β-O-methyl cellobioside sulfate [mCBS]: the “Viable area of the skin flap” value in data set [4] is “consistently and significantly increased”. The “Histone-induced thrombocytopenia and anaemia” value in data set [1] (100 mg kg^−1 i.p., 10 min post-histones, FIG. 6b) was “prevented”. In data set [1] (FIG. 6a), the “Relative potency in protecting from histone-induced tissue pathologies” value is “equally active”; the “Protection from histone-induced liver damage, generalised tissue injury and kidney failure (circulating ALT, LDH, creatinine)” value is “protected”. Besides, the “Ability of erythrocytes to passage through an artificial spleen” value in data set [5] is recorded as “totally restored”. The “Neutralization of anti-proliferative effect of histones on HMEC-1 monolayers” value in data set [6] was “completely neutralized”. The “Inhibition of histone-induced platelet aggregation” value in data set [2] is reported as “completely inhibited”. Besides, in data set [7] (histones 400 μg ml^−1, FIG. 3c), the “Prevention of histone-mediated RBC aggregation (auto-fluorescence)” value is reported as “prevented aggregation in a concentration dependent manner”. In data set [7] (histones 400 μg ml^−1, mCBS 200 μg ml^−1, 1 h 37° C., FIG. 3a, confirmed by scanning EM), the “Inhibition of histone-induced erythrocyte aggregation (FSC/SSC)” value is listed as “completely inhibited”. Also, the “Inhibition … (endothelial cells)” value in data set [3] (compared with heparin, FIG. 2a) is on record as “as effective as heparin”.
